Experimental data: US20260232674A1, “METHODS OF TREATING HIDRADENITIS SUPPURATIVA” (Alumis Inc., priority 2023, published 2026)

Tests used:
[1] = tested on: IFN1 gene expression; assay: IFN gene set expression (RNA-sequencing) in healthy volunteers, Compound A versus placebo, day 14; assay type: in vivo
Protocol: (§1) A study was conducted to assess IFN1 gene expression in healthy volunteers administered a regimen of Compound A. The data set consists of 48 subjects with transcriptome-wide RNA-sequencing data collected for each subject per time-point. For each subject, time points included a pre-dose at day 1, a pre-dose at day 14, and a 4 hour post-day 14 dose. A Wald test was used to assess the association of the various doses at post-dose day 14 versus placebo. To assess potentially off target effects, a secondary transcriptome-wide analysis was performed. Multiple test correction was completed using a Benjamini-Hochberg cutoff of 0.05 within the primary and secondary analyses separately.
For example FIG. 4 and FIG. 5 show dose-dependent median IFN gene expression levels over time for HERC5, IFI27, IFIT1, RSAD2. […] As shown in FIG. 6 and FIG. 7, SIGLEC1 was decreased after a 14-day regimen of treatment with Compound A.

[2] = IFN gene expression in healthy volunteers after 7 days 40 mg Compound A twice daily versus placebo; assay type: in vivo; settings: gene CETP, 40 mg twice daily, versus placebo, healthy volunteers
Protocol: (§2) A study was conducted to assess IFN1 gene expression in healthy volunteers administered a regimen of Compound A. The data set consists of 48 subjects with transcriptome-wide RNA-sequencing data collected for each subject per time-point. […] […] To assess potentially off target effects, a secondary transcriptome-wide analysis was performed. Multiple test correction was completed using a Benjamini-Hochberg cutoff of 0.05 within the primary and secondary analyses separately.

[3] = tested on: IFN gene expression; assay: as above; assay type: in vivo
Protocol: as §2

[4] = tested on: transcriptome-wide gene expression; assay: Secondary transcriptome-wide analysis for potentially off target effects, day 14 4 hour post-treatment versus placebo; assay type: in vivo, healthy volunteers
Protocol: as §1

[2H]C([2H])([2H])CC(=O)c1cnc(NC(=O)C2CC2)cc1Nc1cccc(-c2ncn(C([2H])([2H])[2H])n2)c1OC [Compound A, N-(4-((2-Methoxy-3-(1-(methyl-d3)-1H-1,2,4-triazol-3-yl)phenyl)amino)-5-(propanoyl-3,3,3-d3)pyridin-2-yl)cyclopropanecarboxamide]
association of Compound A with SIGLEC1 gene expression (Wald test) ([1]; after 14 days of treatment versus placebo, Table 2): significant association | median IFN gene expression levels for HERC5, IFI27, IFIT1, RSAD2 ([1]; after 14 days, versus placebo, FIG. 4 and FIG. 5, healthy volunteers): substantial decrease | median gene expression levels for SIGLEC1 ([1]; after a 14-day regimen, versus placebo, FIG. 6 and FIG. 7, healthy volunteers): decreased | log2FoldChange CXCL10 ([1]; gene CXCL10, after 14 days of treatment versus placebo, healthy volunteers): −1.589 | log2FoldChange EPSTI1 ([1]; gene EPSTI1, after 14 days of treatment versus placebo, healthy volunteers): −0.2266 | log2FoldChange IFI27 ([1]; gene IFI27, after 14 days of treatment versus placebo, healthy volunteers): −1.082 | log2FoldChange IFI44 ([1]; gene IFI44, after 14 days of treatment versus placebo, healthy volunteers): −0.3773 | log2FoldChange IFI44L ([1]; gene IFI44L, after 14 days of treatment versus placebo, healthy volunteers): −1.043 | log2FoldChange IFIT1 ([1]; gene IFIT1, after 14 days of treatment versus placebo, healthy volunteers): −1.676 | log2FoldChange ISG15 ([1]; gene ISG15, after 14 days of treatment versus placebo, healthy volunteers): −0.8721 | log2FoldChange ISG20 ([1]; gene ISG20, after 14 days of treatment versus placebo, healthy volunteers): 0.08851 | log2FoldChange MX1 ([1]; gene MX1, after 14 days of treatment versus placebo, healthy volunteers): −1.438 | log2FoldChange OAS1 ([1]; gene OAS1, after 14 days of treatment versus placebo, healthy volunteers): −0.1127 | log2FoldChange OAS2 ([1]; gene OAS2, after 14 days of treatment versus placebo, healthy volunteers): −0.008935 | log2FoldChange OAS3 ([1]; gene OAS3, after 14 days of treatment versus placebo, healthy volunteers): −0.7134 | log2FoldChange RSAD2 ([1]; gene RSAD2, after 14 days of treatment versus placebo, healthy volunteers): −0.4713 | log2FoldChange SIGLEC1 ([1]; gene SIGLEC1, after 14 days of treatment versus placebo, healthy volunteers): −3.579 | log2FoldChange SPATS2L ([1]; gene SPATS2L, after 14 days of treatment versus placebo, healthy volunteers): −0.5117 | log2FoldChange CETP [2]: 1.503 | rank of SIGLEC1 among differentially expressed genes, treated versus placebo ([3]; 40 mg twice daily, Table 3): top differentially expressed gene | log2FoldChange CHRM3 ([3]; gene CHRM3, 40 mg twice daily, versus placebo, healthy volunteers): −1.521 | log2FoldChange HJURP ([3]; gene HJURP, 40 mg twice daily, versus placebo, healthy volunteers): 1.007 | log2FoldChange OSM ([3]; gene OSM, 40 mg twice daily, versus placebo, healthy volunteers): 1.157 | log2FoldChange SIGLEC1 ([3]; gene SIGLEC1, 40 mg twice daily, versus placebo, healthy volunteers): −3.626 | log2FoldChange SOCS3 ([3]; gene SOCS3, 40 mg twice daily, versus placebo, healthy volunteers): 1.421 | log2FoldChange SYN2 ([3]; gene SYN2, 40 mg twice daily, versus placebo, healthy volunteers): 2.239 | log2FoldChange CDNF ([4]; gene CDNF, secondary analysis): 1.185 | log2FoldChange ENSG00000288643 ([4]; gene ENSG00000288643, secondary analysis): −1.541 | log2FoldChange IFI6 ([4]; gene IFI6, secondary analysis): −1.206 | log2FoldChange IFIT1 ([4]; gene IFIT1, secondary analysis): −1.676 | log2FoldChange JPH4 ([4]; gene JPH4, secondary analysis): −1.043 | log2FoldChange LRP1 ([4]; gene LRP1, secondary analysis): −1.314 | log2FoldChange LRRC75B ([4]; gene LRRC75B, secondary analysis): −1.205 | log2FoldChange MX1 ([4]; gene MX1, secondary analysis): −1.438 | log2FoldChange SIGLEC1 ([4]; gene SIGLEC1, secondary analysis): −3.579 | off target associations after multiple test corrections ([4]; transcriptome-wide, Table 4): no significant off target associations
